The record followed here is patent publication US10117950B2, “Compounds and compositions for the treatment of ocular disorders” (Graybug Vision, Inc., priority 2015, dated 2018).

Where two headings read alike, the source gives them in different places.

Data set [1] can be described thus: In vitro stability of brinzolamide and dorzolamide NCEs (RP-HPLC). Conditions: PBS pH 7, 10% DMSO; for in vitro stability / degradation kinetics: 37° C. and accelerated conditions, 14-19 days; for primary compound remaining: 37° C. The protocol:
The samples were incubated at 37° C. or 50° C. to simulate physiological and accelerated degradation conditions, respectively. At various time points, 100 μL of the solution was collected, diluted 10-fold with MeCN+0.1% formic acid, filtered through a 0.2 μm nylon syringe filter and analyzed by RP-HPLC.

Data set [2] has as its target T1, bovine erythrocyte carbonic anhydrase II (Bos taurus, UniProt P00921).
T1 construct: purified bovine erythrocyte carbonic anhydrase II; from tissue; host or cells: bovine erythrocytes
In words: Carbonic anhydrase II inhibition, colorimetric 4-nitrophenyl acetate hydrolysis. In kind it is biochemical. Conditions: for IC50: n = 2. As for the experimental part:
The catalytic activity of carbonic anhydrase II was assessed by a colorimetric method, in which 4-nitrophenyl acetate is hydrolyzed to acetate and nitrophenolate. The nitrophenolate ionizes to generate a bright yellow anion that is readily detected by measuring its absorbance at 350-400 nm. […] Acetazolamide was added as a positive control and 100% DMSO was added as a negative control. The reaction was initiated with the addition of 20 μL of 4-nitrophenyl acetate (0.7 mM in ethanol).

The nature of data set [3]: Determination of drug solubility. In kind it is physicochemical. The settings on record: for solubility: thermodynamic from solid. The protocol:
For each test, approximately 5-10 mg was transferred to a 10 mL glass vial. Aqueous or organic solvent was added to each vial to achieve an overall concentration of 50 mg/mL. After vortexing aggressively for 2-3 minutes and sonicating in a bath sonicator for 5 minutes, undissolved drug was spun down at 1200 rpm for 5 minutes to generate a pellet. The supernatant was collected and filtered through a 0.2 μm nylon syringe filter into HPLC vials for drug content analysis. Drug concentration was determined by comparing against a standard calibration curve.

Data set [4] is described as follows: In vitro stability of bifunctional conjugates (HPLC, 254 nm). It is filed as physicochemical. The settings on record: PBS pH 7.0, 20% DMSO; for degradation kinetics: one day. As for the experimental part:
Briefly, brinzolamide-PLA (n=4)-succinate-5-hydroxy-sunitinib (60-1) or dorzolamide-PLA (n=4)-succinate-5-hydroxy-sunitinib (58-5) was first dissolved in a solution of PBS (pH 7.0) with 20% DMSO (v/v) and incubated at 37° C. or 60° C. for 14 days.

Data set [5] in a line: In vitro stability of latanoprost NCEs (RP-HPLC). It is filed as physicochemical. Conditions: PBS pH 7.0, 20% DMSO, 37° C., 14 days. As for the experimental part: Latanoprost and latanoprost-PLA conjugates were solubilized with the addition of 20% (v/v) DMSO and subsequently suspended to a concentration of 1 mg/mL in PBS (pH 7.0).
Where [6] appears, read: DCM, organic solvent or mixture, read-out: Solubility DCM.
[7] abbreviates: DMSO, organic solvent or mixture, read-out: Solubility DMSO.
The mark [8] stands for this setting: water / aqueous solvent, read-out: Solubility Water.

T1 sequence (P00921 whole entry): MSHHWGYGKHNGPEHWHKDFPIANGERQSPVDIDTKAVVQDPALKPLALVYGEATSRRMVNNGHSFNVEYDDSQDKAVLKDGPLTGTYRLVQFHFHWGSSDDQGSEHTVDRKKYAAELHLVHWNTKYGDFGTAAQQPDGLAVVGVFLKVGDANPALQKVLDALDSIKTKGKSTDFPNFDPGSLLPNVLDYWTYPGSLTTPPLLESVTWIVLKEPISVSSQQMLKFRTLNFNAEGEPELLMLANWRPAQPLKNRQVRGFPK

On to `CCN[C@H]1C[C@H](C)S(=O)(=O)c2sc(S(=O)(=O)NC(=O)[C@H](C)O)cc21` [19-3, dorzolamide-PLA (n=1)], for which the “in vitro stability / degradation kinetics” value in data set [1] was “the most stable”. In data set [2], half-maximal inhibition (IC50) was put at 3.32 ± 2.71 nM.
With `CCN[C@H]1C[C@H](C)S(=O)(=O)c2sc(S(=O)(=O)NC(=O)[C@H](C)OC(=O)[C@H](C)OC(=O)[C@H](C)OC(=O)[C@H](C)OC(=O)[C@H](C)OC(C)=O)cc21` [28-1, dorzolamide-acetyl PLA (n=5)], the solubility (as a rule, the dissolved amount per volume that the medium holds) was greater than 50 mg/mL in data set [3] (setting [6]), greater than 50 mg/mL in data set [3] (setting [7]) and less than 1 mg/mL in data set [3] (setting [8]). The half-inhibitory concentration (IC50) – broadly, the midpoint of a concentration-inhibition curve – in data set [2] stood at 89.2 ± 18.1 nM.
For `CCN[C@H]1CN(CCCOC)S(=O)(=O)c2sc(S(=O)(=O)NC(=O)[C@H](C)O)cc21` [32-3, brinzolamide-PLA (n=1)], the “in vitro stability / degradation kinetics” value in data set [1] was “slowest”. For the same compound, the primary compound remaining in data set [1] (14 days) was greater than 98%. Moreover, in data set [2], the IC50 turned out to be 5.78 ± 3.78 nM.
Take `CCN[C@H]1CN(CCCOC)S(=O)(=O)c2sc(S(=O)(=O)NC(=O)[C@H](C)OC(=O)[C@H](C)O)cc21` [33-2, brinzolamide-PLA (n=2)]: the solubility in data set [3] (setting [6]), in data set [3] (setting [7]) and in data set [3] (setting [8]) was greater than 50 mg/mL each time. In addition, the primary compound remaining result in data set [1] (14 days) was “approximately 53%”. This compound also registered an IC50 in data set [2] of 10.7 ± 7.27 nM.
Consider `CCN[C@H]1CN(CCCOC)S(=O)(=O)c2sc(S(=O)(=O)NC(=O)[C@H](C)OC(=O)[C@H](C)OC(=O)[C@H](C)O)cc21` [34-2, brinzolamide-PLA (n=3)], for which the solubility in data set [3] (setting [6]), in data set [3] (setting [7]) and in data set [3] (setting [8]) was greater than 50 mg/mL throughout. Moreover, the “in vitro stability / degradation kinetics” value in data set [1] is listed as “minimal degradation to the parent compound”. Also, in data set [1] (day 7), the primary compound remaining result is “approximately 2.7%”. This compound also displayed an IC50 in data set [2] of 21.5 ± 11.2 nM.
Regarding `CCN[C@H]1CN(CCCOC)S(=O)(=O)c2sc(S(=O)(=O)NC(=O)[C@H](C)OC(=O)[C@H](C)OC(=O)[C@H](C)OC(C)=O)cc21` [36-1, brinzolamide-acetyl PLA (n=3)], the solubility in data set [3] (setting [6]), in data set [3] (setting [7]) and in data set [3] (setting [8]) was greater than 50 mg/mL each time. For the same compound, the primary compound remaining result in data set [1] (day 7) is on record as “approximately 15.4%”.
Turning to `CCN[C@H]1CN(CCCOC)S(=O)(=O)c2sc(S(=O)(=O)NC(=O)[C@H](C)OC(=O)[C@H](C)OC(=O)[C@H](C)OC(=O)[C@H](C)OC(C)=O)cc21` [37-1, brinzolamide-acetyl PLA (n=4)], the solubility was greater than 50 mg/mL in data set [3] (setting [6]), greater than 50 mg/mL in data set [3] (setting [7]) and less than 1 mg/mL in data set [3] (setting [8]). For the same compound, half-maximal inhibition in data set [2] (IC50) was put at 41.5 ± 11.2 nM.
For `CCN[C@H]1CN(CCCOC)S(=O)(=O)c2sc(S(=O)(=O)NC(=O)[C@H](C)OC(=O)[C@H](C)OC(=O)[C@H](C)OC(=O)[C@H](C)OC(=O)[C@H](C)OC(C)=O)cc21` [38-1, brinzolamide-acetyl PLA (n=5)], the solubility in data set [3] (setting [6]) is greater than 50 mg/mL; in data set [3] (setting [7]) it was greater than 50 mg/mL; in data set [3] (setting [8]), less than 1 mg/mL. The compound further came in with an IC50 in data set [2] of 102 ± 31.4 nM.
`CCN[C@H]1CN(CCCOC)S(=O)(=O)c2sc(S(=O)(=O)NC(=O)[C@H](C)OC(=O)[C@H](C)OC(=O)[C@H](C)OC(=O)[C@H](C)OC(=O)[C@H](C)OC(=O)[C@H](C)OC(C)=O)cc21` [39-1, brinzolamide-acetyl PLA (n=6)]: the solubility was greater than 50 mg/mL in data set [3] (setting [6]), greater than 50 mg/mL in data set [3] (setting [7]) and less than 1 mg/mL in data set [3] (setting [8]). Besides, the concentration for half-maximal inhibition (IC50) in data set [2] worked out at 172 ± 35.6 nM.
As to `CCN[C@H]1CN(CCCOC)S(=O)(=O)c2sc(S(=O)(=O)NC(=O)[C@H](C)OC(=O)[C@H](C)OC(=O)[C@H](C)OC(C)(C)C)cc21` [40-1, brinzolamide-t-butyl PLA (n=3)], the “in vitro stability / degradation kinetics” value in data set [1] is reported as “significantly slower than its acetylated (36-1) or uncapped counterpart (34-2)”.
In the case of `CCN[C@H]1C[C@H](C)S(=O)(=O)c2sc(S(=O)(=O)NC(=O)[C@H](C)OC(=O)[C@H](C)OC(=O)[C@H](C)OC(=O)CCC(=O)Oc3ccc4c(c3)/C(=C/c3[nH]c(C)c(C(=O)NCCN(CC)CC)c3C)C(=O)N4)cc21` [56-5, (3Z)-3-[(4-{[2-(Diethylamino)ethyl]carbamoyl}-3,5-dimethyl-1H-pyrrol-2-yl)methylidene]-2-oxo-2,3-dihydro-1H-indol-5-yl 1-(2S)-1-{[(2S)-1-[(1S)-1-({[(2S,4S)-4-(ethylamino)-2-methyl-1,1-dioxo-2H,3H,4H-1λ^6-thieno[2,3-b]thiopyran-6-yl]sulfonyl}carbamoyl)ethoxy]-1-oxopropan-2-yl]oxy}-1-oxopropan-2-yl butanedioate], the values for the solubility in data set [3] (setting [7]) and in data set [3] (setting [8]) were greater than 50 mg/mL and less than 1 mg/mL, respectively. In addition, in data set [2], the “carbonic anhydrase inhibitory activity” value is listed as “lowest inhibitory activity”. In data set [2], the half-maximal inhibitory concentration (IC50) came to 184 ± 44.8 nM.
Turning to `CCN[C@H]1C[C@H](C)S(=O)(=O)c2sc(S(=O)(=O)NC(=O)[C@H](C)OC(=O)[C@H](C)OC(=O)[C@H](C)OC(=O)[C@H](C)OC(=O)CCC(=O)Oc3ccc4c(c3)/C(=C/c3[nH]c(C)c(C(=O)NCCN(CC)CC)c3C)C(=O)N4)cc21` [58-5, dorzolamide-PLA(n=4)-succinate-5-hydroxy-Sunitinib], in data set [3] (setting [7]), the solubility was greater than 50 mg/mL. The solubility in data set [3] (setting [8]) is less than 1 mg/mL. The “degradation kinetics” value in data set [4] is recorded as “rapidly decreasing after one day”. In data set [2], the “carbonic anhydrase inhibitory activity” value is recorded as “lowest inhibitory activity” and the IC50 is 222 ± 36.3 nM.
As for `CCN[C@H]1CN(CCCOC)S(=O)(=O)c2sc(S(=O)(=O)NC(=O)[C@H](C)OC(=O)[C@H](C)OC(=O)[C@H](C)OC(=O)[C@H](C)OC(=O)CCC(=O)Oc3ccc4c(c3)/C(=C/c3[nH]c(C)c(C(=O)NCCN(CC)CC)c3C)C(=O)N4)cc21` [60-1, brinzolamide-PLA(n=4)-succinate-5-hydroxy-Sunitinib], the values for the solubility in data set [3] (setting [7]) and in data set [3] (setting [8]) were greater than 50 mg/mL and less than 1 mg/mL, respectively. In addition, the “PLA (n=4) signal” value in data set [4] (after one day of incubation) is 15.7%; in data set [4] (before incubation), 83%. Also, the “degradation kinetics” value in data set [4] is on record as “rapidly hydrolyzed”.
Take `CC(C)OC(=O)CCC/C=C\C[C@@H]1[C@@H](CC[C@@H](O)CCc2ccccc2)[C@H](O)C[C@@H]1O` [Latanoprost, latanoprost, reference compound]: the solubility in data set [3] (setting [6]) was greater than 50 mg/mL; in data set [3] (setting [7]), greater than 50 mg/mL; in data set [3] (organic solvent (not named), organic solvent or mixture, organic solvent, read-out: organic solubility) it was greater than 50 mg/mL; in data set [3] (setting [8]), less than 1 mg/mL. Also, in data set [3] (water / aqueous solvent), the “Solubility Water” value was “very low aqueous solubility”. In addition, in data set [5], the “in vitro stability” value was “good stability”.
